Values quoted from earlier work as cited in patent US12391660B2, “Heteroaromatic acetamide derivative, and preparation and use thereof” (Hangzhou Westan Pharmaceutical Technology Co., Ltd, priority 2019, dated 2025).

What was measured:
mouse asthma model = conditions: cited from earlier work
guinea pigs = conditions: cough induced by acrolein, crotonaldehyde, cinnamaldehyde; cited from earlier work
mouse model of COPD = conditions: pretreatment of mice, cigarette smoke; cited from earlier work

SMILES	acidophilic leukocytes (mouse asthma model)	mucus secretion and airway hyperreactivity (mouse asthma model)	cough response (guinea pigs)	plasma protein extravasation induced by CS (mouse model of COPD)
Cn1c(=O)c2c(CC(=O)Nc3nc(-c4ccc(F)c(C(F)(F)F)c4F)cs3)csc2n(C)c1=O [GRC17536]	reduce	inhibit	–	–
CC(C)c1ccc(NC(=O)Cn2cnc3c2c(=O)n(C)c(=O)n3C)cc1 [HC-030031]	–	–	significantly attenuate	protective effect
